From ChEMBL document CHEMBL1156829 (Proc Natl Acad Sci U S A, 2008)

How the values were obtained:
[1] = NOVARTIS: Cytotoxicity against human hepatocellular carcinoma cell line (Huh7); type: toxicity, cell-based, Huh-7; conditions: Huh7 cells (hepatocellular carcinoma cell line)
[2] = test system: Plasmodium falciparum; assay: NOVARTIS: Inhibition of Plasmodium falciparum W2 (drug-resistant) proliferation in erythrocyte-based infection assay; type: functional, organism-based; conditions: Plasmodium falciparum, W2; read-out: EC50
[3] = test system: Plasmodium falciparum; assay: NOVARTIS: Inhibition of Plasmodium falciparum 3D7 (drug-susceptible) proliferation in erythrocyte-based infection assay; type: functional, organism-based; conditions: Plasmodium falciparum, 3D7

SMILES	CC50 [1]	EC50 [2]	EC50 [3]
CCN1CCN(c2cc(C)c3cc(NC(=O)/C=C/c4ccc(OC)cc4)ccc3n2)CC1	> 10.4 µM	0.762 µM	0.905 µM
CCN1CCN(c2cc(C)c3cc(NC(=O)/C=C/c4cccc(Cl)c4)ccc3n2)CC1	> 13.8 µM	1.01 µM	0.935 µM
CC(C)C1c2[nH]c3ccccc3c2CCN1C(=O)CCl (stereo not drawn)	> 10 µM	0.377 µM	0.498 µM
CNC(=O)NNC(=O)c1cccnc1	> 100 µM	> 7.47 µM	> 12.5 µM
Cc1c2ccccc2c(C)c2ccccc12	21.6 µM	0.827 µM	0.803 µM
CC(=O)Nc1ccc(Oc2ccc(C(c3ccccc3)(c3ccccc3)c3ccc(Oc4ccc(NC(C)=O)cc4)cc3)cc2)cc1	> 10 µM	0.747 µM	0.36 µM
N=c1c2c(n(Cc3cccc(Cl)c3)c3c1CCC3)CCCC2	> 10 µM	0.378 µM	0.992 µM
CCCCCCCCCCCCn1ccc(=N)cc1	4.99 µM	0.188 µM	0.321 µM
Cc1cccc(C2c3[nH]c4ccccc4c3CCN2C(=O)CCCN2CCCCC2=O)n1 (stereo not drawn)	> 100 µM	3.77 µM	> 12.5 µM
O=C1CC(c2ccccc2)Oc2ccc(F)cc21 (stereo not drawn)	> 10 µM	> 0.734 µM	> 1.25 µM
CCn1c(SCC(=O)N(c2ccccc2)c2ccccc2)nc2sc3c(c2c1=O)CCN(C)C3	> 100 µM	7.34 µM	> 5.08 µM
CC(C)N(CC(=O)Nc1cc(C(C)(C)C)nn1-c1ccc(Cl)c(Cl)c1)C(=O)c1ccc(C(C)(C)C)cc1	> 100 µM	7.33 µM	6.03 µM
CCC[n+]1ccc(/C=C/c2ccc(Br)cc2)cc1	> 10 µM	0.382 µM	0.645 µM
Fc1ccc(N2CCN(c3ncnc4c3cnn4-c3ccccc3)CC2)cc1	> 100 µM	3.78 µM	> 12.5 µM
CC(=O)N(Cc1ccc2c(c1)OCO2)C1CC(=O)N(c2ccccc2)C1=O (stereo not drawn)	> 10 µM	> 0.381 µM	> 1.25 µM
COc1ccc(OCCNC(=O)c2ccccc2Cl)cc1	> 10 µM	> 0.38 µM	> 1.25 µM
CCOc1ccccc1CN1CCCC(C(=O)N2CCCCCC2)C1 (stereo not drawn)	37.4 µM	1.42 µM	4.4 µM
CC(C)CNC(=O)c1cnc(NCCCn2ccnc2)nc1NCC1CCCCC1	> 10 µM	0.379 µM	0.278 µM
O=C(CSc1nc(NCc2ccccc2)c2ccccc2n1)NCc1ccco1	> 10 µM	0.378 µM	0.254 µM
C=CCN1CCN(C(c2ccccc2F)c2nnnn2Cc2ccco2)CC1 (stereo not drawn)	> 77 µM	2.91 µM	> 12.5 µM
CCN1CCN(c2cc(C)c3cc(NC(=O)C=Cc4ccccc4Cl)ccc3n2)CC1	18.4 µM	0.697 µM	0.546 µM
CCOC(=O)c1cnc2ccc(OC)cc2c1NCc1cccs1	> 100 µM	3.72 µM	5.9 µM
CCN(CC)CCCN(Cc1cc2cc(OC)c(OC)cc2[nH]c1=O)C(=S)Nc1cccc(Cl)c1	18.9 µM	0.707 µM	0.698 µM
N#CC(C#N)C(C(Sc1ccc([N+](=O)[O-])cc1)=C(O)c1ccccc1)c1cccs1 (stereo not drawn)	17.7 µM	0.661 µM	1.35 µM

SMILES	CC50 [1]	EC50 [2]	EC50 [3]
O=C(CN1CCCC1)Nc1ccc(-c2nc3cc(NC(=O)CN4CCCC4)ccc3o2)cc1	36.2 µM	1.36 µM	2.46 µM
COc1cc2c(cc1OC)-c1cc3ccc4c(c3c[n+]1CC2)OCO4	> 6.25 µM	0.233 µM	0.103 µM
COc1ccc(NC(=O)CCCCCn2c(SCC(=O)c3ccccc3)nc3ccsc3c2=O)cc1	> 100 µM	3.76 µM	3.12 µM
Brc1ccc2ncnc(NCC3CCCO3)c2c1 (stereo not drawn)	> 100 µM	3.75 µM	> 12.5 µM
c1cncc(-c2ncc(-c3cnccn3)c(-c3cccnc3)n2)c1	> 10 µM	> 0.374 µM	> 1.25 µM
N=c1c2c(n(Cc3ccccc3)c3c1CCC3)CCCC2	> 10 µM	0.738 µM	0.426 µM
Nc1nnc(SCC(=O)Nc2nnc(SCC(=O)Nc3nccs3)s2)s1	> 10 µM	> 0.738 µM	> 1.25 µM
Nc1nc(Cl)nc2ccccc12	> 10 µM	0.737 µM	0.516 µM
CCN(CC)c1ccc2cc(C(C)=NNC(N)=S)c(=O)oc2c1	> 100 µM	7.46 µM	4.31 µM
CCCCOc1ccc(/C=C/C(=O)NCc2ccco2)cc1	> 10 µM	0.744 µM	0.183 µM
C=C(Cl)CSc1nnc(CCNC(=O)c2ccc(C)cc2)n1-c1ccc(F)cc1	> 100 µM	7.43 µM	> 12.5 µM
COc1cc(NC(C)CCCN(Cc2ccc(F)cc2)C(=O)c2ccccc2F)c2ncccc2c1 (stereo not drawn)	> 8.74 µM	0.649 µM	0.692 µM
COC(=O)CNC(=O)c1sc2ncn(CC(=O)Nc3ccccc3OC)c(=O)c2c1C	> 10 µM	> 0.739 µM	> 0.948 µM
O=C1C(O)=CC(=Nc2ccc(Cc3ccncc3)cc2)c2ccccc21	> 10 µM	0.739 µM	0.496 µM
Cc1ccccc1C(=O)N(CC(=O)Nc1cc(C(C)(C)C)nn1-c1ccccc1Cl)C(C)C	> 8.81 µM	0.649 µM	1.09 µM
COC(=O)CSc1nnc2c(n1)[nH]c1c(OC)ccc(Cl)c12	> 10 µM	0.736 µM	0.642 µM
CCCCCCN(C(=O)Nc1ccccc1OC)C(C)c1nc2ccccc2c(=O)n1-c1ccccc1OCC (stereo not drawn)	> 10 µM	0.753 µM	0.852 µM
Cc1ccccc1OCCSc1nc2ccc(NC(=O)c3ccccc3)cc2s1	> 100 µM	> 7.47 µM	9.76 µM
COc1ccc(OC)c(-c2ccc(O)c(CNCCc3ccc(Cl)cc3)c2)c1	> 10 µM	0.749 µM	0.987 µM
O=C(CCN1C(=O)C2CCCCC2C1=O)N1CCc2ccccc2C1 (stereo not drawn)	> 100 µM	7.49 µM	> 4.85 µM
O=C1NCCN1C(=O)C(c1ccccc1)c1ccccc1	> 10 µM	> 0.746 µM	> 1.54 µM
COC(=O)c1c(NC(=O)c2cc3ccccc3oc2=O)sc2c1CCC(C)C2 (stereo not drawn)	> 100 µM	> 7.46 µM	> 12.5 µM
COc1cc2nc(CN(C)C(C)c3cccs3)nc(N3CCCC3)c2cc1OC (stereo not drawn)	26.4 µM	1.99 µM	> 12.5 µM
N#Cc1cccc(/C=C/C(=O)O)c1	> 10 µM	0.752 µM	1.65 µM

SMILES	CC50 [1]	EC50 [2]	EC50 [3]
COc1cc(NC(C)CCCN(Cc2ccc(Cl)cc2)C(=O)Nc2cccc(C(F)(F)F)c2)c2ncccc2c1 (stereo not drawn)	> 4.44 µM	0.332 µM	0.798 µM
Cc1cc(C)nc(SCc2cc(=O)c(OC(=O)c3cccc([N+](=O)[O-])c3C)co2)n1	> 100 µM	> 7.47 µM	> 12.5 µM
CCN(CC)CCCC(C)Nc1ccnc2ccc([N+](=O)[O-])cc12 (stereo not drawn)	> 10 µM	0.747 µM	0.249 µM
CCCCCCc1ccc(C(=O)N(CC(=O)Nc2cc(C(C)(C)C)nn2-c2ccc(Cl)c(Cl)c2)C(C)C)cc1	> 10 µM	> 0.752 µM	1.39 µM
COc1ccc(C2=C/C(=C/c3cccc(OC)c3OC)C(=O)O2)cc1OC	> 10 µM	> 0.751 µM	1.15 µM
COc1ccc(Nc2nc(-c3cc4cc(OC)ccc4oc3=O)cs2)c(OC)c1	> 100 µM	> 7.47 µM	> 12.5 µM
CCOc1ccc(OCc2nnc(S)n2N)cc1	> 10 µM	> 0.752 µM	> 1.25 µM
O=C1c2ccccc2-c2nc3c(Cl)cc(C(F)(F)F)cc3nc21	> 10 µM	0.747 µM	1.03 µM
CC(C)c1cccc(C(C)C)c1NC(=O)N(Cc1ccccc1)C(C)c1nc2ccccc2c(=O)n1-c1ccccc1 (stereo not drawn)	> 10 µM	0.738 µM	1.31 µM
CCC(C)NC(=O)c1nn(-c2cccc(OC)c2)c(=O)c2ccccc12 (stereo not drawn)	> 100 µM	3.81 µM	1.97 µM
CC1CCC(C(C)C)C(OC(=O)Cn2c(-c3ccccc3)[n+](C)c3ccccc32)C1 (stereo not drawn)	> 11.2 µM	0.426 µM	0.376 µM
COc1cc(/C=C/C(=O)Nc2ccc3nc(N4CCN(c5ncccn5)CC4)cc(C)c3c2)cc(OC)c1OC	> 10 µM	0.739 µM	1.33 µM
CC(C)C1Oc2cc3oc(=O)ccc3cc2C1=NO (stereo not drawn)	> 10 µM	0.743 µM	> 1.15 µM
Cc1cccc(-c2cc3nc(C)c(C)c(O)n3n2)c1	> 100 µM	7.54 µM	> 9.72 µM
Cc1sc2nc3c4ccccc4c(NCCCN(C)C)nn3c(=O)c2c1C	60 µM	2.3 µM	6.6 µM
COc1cccc(Nc2nc(NCC3CCCO3)c3ccccc3n2)c1 (stereo not drawn)	7.67 µM	0.286 µM	0.23 µM
CCN(CC)c1ccc2c(C)cc(Nc3ccccc3)[o+]c2c1	> 10 µM	0.746 µM	0.239 µM
CCOC(=O)c1[nH]c(CSC#N)c(C(C)=O)c1C	> 10 µM	> 0.378 µM	> 1.25 µM
c1ccc(C[C@H]2CN(c3ccccc3)CCN2CCNCCOc2ccccc2)cc1	> 5.32 µM	0.2 µM	0.261 µM
CCC(=O)N1CCc2cc(Br)cc(S(=O)(=O)N3CCN(CC)CC3)c21	> 10 µM	> 0.744 µM	> 1.63 µM
Cc1ccc(-n2c(C(C)N(Cc3ccco3)C(=O)C3CCC3)nc3cc(Cl)ccc3c2=O)cc1 (stereo not drawn)	> 2.76 µM	0.208 µM	> 1.68 µM
NC(=O)Oc1ccc(Cc2ccccc2)cc1	> 10 µM	0.738 µM	0.843 µM
CC1=C(CC(=O)c2cccs2)C(=O)c2ccccc2C1=O	7.75 µM	0.29 µM	1.24 µM
